Assay results as given in PubChem BioAssay AID1648 (Sanford-Burnham Center for Chemical Genomics, 2009).
Active and inactive are the calls of the source. The rule behind the calls is not given here.

Target: Serine/threonine-protein kinase mTOR (Homo sapiens) (UniProt P42345)
Experiment: binders of mTOR FRB domain, biophysical, NMR (AID 1648)
Conditions: NMR binding to FRB domain, chemical shift

Serine/threonine-protein kinase mTOR (Homo sapiens), sequence (P42345 2015-2114): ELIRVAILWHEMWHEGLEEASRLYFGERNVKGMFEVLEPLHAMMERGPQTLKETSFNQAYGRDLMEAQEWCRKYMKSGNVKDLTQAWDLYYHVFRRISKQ

For `CCOc1nc(C)ccc1-c1noc(-c2ccco2)n1`, the Kd was > 4 mM (inactive).
With `COc1ccc2[nH]cc(CCN(C)C)c2c1` the Kd was > 4 mM (inactive).
With `COc1c(O)cc2c(c1O)[C@H]1O[C@H](CO)[C@@H](O)[C@H](O)[C@@H]1OC2=O` the Kd was > 4 mM (inactive).
`CC1CN=C(Nc2ccccc2)S1` (centres undefined) was tested, and the Kd was > 4 mM (inactive).
For `O=C(c1ccccc1)N1CCN(c2ccccc2F)CC1`, the Kd was > 4 mM (inactive).
With `Cc1cc(C)n(-c2ccc(Cl)nn2)n1` the Kd was > 4 mM (inactive).
For `CC1(C)C2C[C@@H](O)[C@]3(C)C(CC[C@@]4(C)[C@H](c5ccoc5)OC(=O)[C@H]5O[C@]543)[C@@]2(C)[C@@H](O)C[C@H]1O` (some centres undefined), the Kd was > 4 mM (inactive).
With `Nc1ccccc1N=C1CNC(=O)C1` the Kd was > 4 mM (inactive).
`Cn1c(CN)nc2ccccc21` was tested, and the Kd was > 4 mM (inactive).
With `Nc1cccc(NC(=O)c2ccco2)c1` the Kd was > 4 mM (inactive).
For `NC(=O)Cn1nc(-c2ccc(F)cc2)ccc1=O`, the Kd was > 4 mM (inactive).
In the case of `Cc1ccc2cc(CO)ccc2n1`, the Kd is reported as > 4 mM (inactive).
In the case of `CCn1nnc2c(NCc3ccccn3)ncnc21`, the Kd is reported as > 4 mM (inactive).
With `N=Nc1c(O)[nH]c2ccccc12` the Kd was > 4 mM (inactive).
For `CC(C)n1c(Nn2cnnc2)nc2ccccc21`, the Kd was > 4 mM (inactive).
With `CCn1cnc(C(=O)NC)c1C(=O)NC` the Kd was > 4 mM (inactive).
With `COc1ccc2ccc(=O)oc2c1CC=C(C)C` the Kd was > 4 mM (inactive).
With `COCc1cc(=O)oc2cc(N)ccc12` the Kd was > 4 mM (inactive).
`O=C(Cc1cccs1)N1CCOCC1` was tested, and the Kd was > 4 mM (inactive).
With `Cc1ccc(-n2[nH]c(C)cc2=O)cc1` the Kd was > 4 mM (inactive).
With `O=[N+]([O-])c1ccc(/C=N/c2ncn[nH]2)cc1` the Kd was > 4 mM (inactive).
With `COc1ccc(C)cc1S(=O)(=O)NC1CCCC1` the Kd was > 4 mM (inactive).
`c1cncc(Cn2cccc2)c1` was tested, and the Kd was > 4 mM (inactive).
`CN1CCN(Cc2cccnc2)CC1` was tested, and the Kd was > 4 mM (inactive).
For `NC(=O)CC1NC(=O)c2ccccc21` (centres undefined), the Kd was > 4 mM (inactive).
In the case of `CCCCCCCCCCCCCCCCCCOCC(O)CO` (centres undefined), the Kd is reported as > 4 mM (inactive).
`Cc1c(CO)cnn1-c1ccccc1` was tested, and the Kd was > 4 mM (inactive).
For `O=C1c2ccncc2C(=O)N1CNc1ccccn1`, the Kd was > 4 mM (inactive).
`Nc1nc2ccc(S(N)(=O)=O)cc2s1` was tested, and the Kd was > 4 mM (inactive).
For `Clc1ccccc1OCc1nc(-c2ccncc2)no1`, the Kd was > 4 mM (inactive).
In the case of `COC(=O)c1ccc(Cl)c(NC(C)=O)c1`, the Kd is reported as > 4 mM (inactive).
`Cn1c(=O)n(CC(=O)Nc2cccnc2)c2ccccc21` was tested, and the Kd was > 4 mM (inactive).
With `N#CCCn1c(=O)oc2ccccc21` the Kd was > 4 mM (inactive).
In the case of `Cc1cc(NC(=O)CCCn2cnc([N+](=O)[O-])n2)no1`, the Kd is reported as > 4 mM (inactive).
With `OCn1nnn(-c2ccccc2)c1=S` the Kd was > 4 mM (inactive).
With `NC(=O)C1CCN(C(=S)Nc2ccccc2)CC1` the Kd was > 4 mM (inactive).
For `NCc1cccc(-n2cccc2)c1`, the Kd was > 4 mM (inactive).
`Cn1c(CO)nc2cc(N)ccc21` was tested, and the Kd was > 4 mM (inactive).
`Cc1nnc(SCC(N)=O)c2ccccc12` was tested, and the Kd was > 4 mM (inactive).
In the case of `CC1(C)N([O-])c2cc([N+](=O)[O-])ccc2[N+]1=O`, the Kd is reported as > 4 mM (inactive).
In the case of `O=C(O)C1(S(=O)(=O)c2ccccc2)CC1`, the Kd is reported as > 4 mM (inactive).
With `Cc1nnc(SCc2ccccc2)[nH]c1=O` the Kd was > 4 mM (inactive).
`NC(=O)C1CCN(S(=O)(=O)c2ccccc2)CC1` was tested, and the Kd was > 4 mM (inactive).
For `CCOc1ccc(N2C(=O)CCC2=O)cc1`, the Kd was > 4 mM (inactive).
`Nc1oncc1-c1ccccn1` was tested, and the Kd was > 4 mM (inactive).
`O=S(=O)(Nc1ccc2c(c1)OCCO2)c1cccs1` was tested, and the Kd was > 4 mM (inactive).
For `Oc1cc(O)c2c(c1)O[C@H](c1ccc(O)c(O)c1)[C@@H](O)C2`, the Kd was > 4 mM (inactive).
`Cc1ccc2c(c1)CCCN2C(=O)c1ccncc1` was tested, and the Kd was > 4 mM (inactive).
With `Nc1cccc(S(N)(=O)=O)c1` the Kd was > 4 mM (inactive).
In the case of `Cc1ccc2nc(SCC(=O)O)nc(C)c2c1`, the Kd is reported as > 4 mM (inactive).
In the case of `CC(=O)NCc1nc2ccccc2[nH]1`, the Kd is reported as > 4 mM (inactive).
With `NC(=O)CSc1nc2[nH]ncc2c(=O)[nH]1` the Kd was > 4 mM (inactive).
`Cc1ccc(C(=O)N2CCC(C(=O)O)CC2)cc1` was tested, and the Kd was > 4 mM (inactive).
In the case of `CC1(C)CC2(CCO1)NCCN1C(=O)CSC12` (centres undefined), the Kd is reported as > 4 mM (inactive).
In the case of `Cc1cc(C)n2nc(N)nc2n1`, the Kd is reported as > 4 mM (inactive).
With `COC(=O)C[C@@H]1C2(C)C(=O)[C@@H](CC3C2CC[C@]2(C)C3CC(=O)O[C@H]2c2ccoc2)[C@H](OC(C)=O)C1(C)C` (some centres undefined) the Kd was > 4 mM (inactive).
`Cc1ccc(NC(=O)C2CCN(S(C)(=O)=O)CC2)cc1` was tested, and the Kd was > 4 mM (inactive).
`CC(C)=CC(=O)Nc1ccccc1C(N)=O` was tested, and the Kd was > 4 mM (inactive).
`O=c1[nH]cc(CN2CCOCC2)c(=O)[nH]1` was tested, and the Kd was > 4 mM (inactive).
`NC(=O)CS(=O)(=O)c1ccc2ccccc2c1` was tested, and the Kd was > 4 mM (inactive).
For `CCOc1ccc2nc(NS(C)(=O)=O)sc2c1`, the Kd was > 4 mM (inactive).
In the case of `COc1cc2c(cc1OC)-c1nnnn1C(C)(C)C2`, the Kd is reported as > 4 mM (inactive).
`Cc1nn(C)c(C)c1C(=O)O` was tested, and the Kd was > 4 mM (inactive).
`Nc1cccc(C(=O)Nc2ccc(N)cc2Cl)c1` was tested, and the Kd was > 4 mM (inactive).
`Cn1cnnc1SCCCNC(=O)Nc1ncccn1` was tested, and the Kd was > 4 mM (inactive).
`CC(=O)c1ccc(CC2SC(N)=NC2=O)cc1` (centres undefined) was tested, and the Kd was > 4 mM (inactive).
With `COC(=O)c1scc(S(C)(=O)=O)c1-n1cccc1` the Kd was > 4 mM (inactive).
`Cn1c(=O)[nH]c(=O)c2nsnc21` was tested, and the Kd was > 4 mM (inactive).
For `Cc1ccc(-c2nn3c(C)nnc3s2)cc1N`, the Kd was > 4 mM (inactive).
For `CCOC(=O)N1CCN(c2ncnc3c2cnn3C)CC1`, the Kd was > 4 mM (inactive).
With `Cc1nnc(SCC(=O)NC2CCCC2)[nH]c1=O` the Kd was > 4 mM (inactive).
In the case of `c1ccc2[nH]c(NCCN3CCOCC3)nc2c1`, the Kd is reported as > 4 mM (inactive).
With `Cc1noc(C)c1C(=O)Nc1ccccc1-c1ccccc1` the Kd was > 4 mM (inactive).
`OC1CCNC2CCCCC12` (centres undefined) was tested, and the Kd was > 4 mM (inactive).
In the case of `CN(C)S(=O)(=O)c1ccc(NC=O)cc1`, the Kd is reported as > 4 mM (inactive).
For `CC(=O)c1cc2c(cc1O)OC(C)(C)C=C2`, the Kd was > 4 mM (inactive).
In the case of `Nn1c(CN2CCCCC2)nc2ccccc2c1=O`, the Kd is reported as > 4 mM (inactive).
In the case of `O=C(Nc1ccon1)c1ccc(Cl)s1`, the Kd is reported as > 4 mM (inactive).
With `O=C(Nc1ccon1)c1cccc(Cl)c1` the Kd was > 4 mM (inactive).
In the case of `CNC(=S)NCCN1CCOCC1`, the Kd is reported as > 4 mM (inactive).
With `Nc1ncnc2c1ncn2[C@@H]1O[C@H](CO)[C@@H](O)[C@H]1O` the Kd was > 4 mM (inactive).
For `COc1ccc(Cl)cc1-c1nc(-c2ccncc2)no1`, the Kd was > 4 mM (inactive).
With `Cc1ccc(-c2nnc3sc(-c4ccncc4)nn23)cc1` the Kd was > 4 mM (inactive).
In the case of `NC(=O)c1ccccc1NC(=O)c1cccnc1`, the Kd is reported as > 4 mM (inactive).
For `COC(=O)c1ccc(/C=C2/NC(=S)NC2=O)cc1`, the Kd was > 4 mM (inactive).
`Cc1cc(OC(=O)c2ccco2)c([N+](=O)[O-])c(=O)[nH]1` was tested, and the Kd was > 4 mM (inactive).
With `CC(C)=NNC(=O)C(=O)Nc1ccc(F)cc1` the Kd was > 4 mM (inactive).
In the case of `O=C(O)CSc1nc2ccccc2c(=O)[nH]1`, the Kd is reported as > 4 mM (inactive).
`CC(=O)Nc1ccccc1OCC(N)=O` was tested, and the Kd was > 4 mM (inactive).
`Cn1c(O)c(/C=C2\C=CC=N2)c(=O)[nH]c1=S` was tested, and the Kd was > 4 mM (inactive).
`Cc1ccccc1NC(=O)c1ocnc1C` was tested, and the Kd was > 4 mM (inactive).
`O=C1CSC(=Nc2ccc(C(=O)O)cc2)N1` was tested, and the Kd was > 4 mM (inactive).
With `COc1ccc(C(C)=O)c(O)c1` the Kd was > 4 mM (inactive).
With `Nc1ncnc2c1ncn2CCOc1ccccc1` the Kd was > 4 mM (inactive).
In the case of `Cc1ccc(C(=O)Nn2cnnc2)c(Cl)c1`, the Kd is reported as > 4 mM (inactive).
For `NC(=O)c1cccc(N2C(=O)C=CC2=O)c1`, the Kd was > 4 mM (inactive).
`c1ccc(CCc2nc(-c3ccccn3)no2)cc1` was tested, and the Kd was > 4 mM (inactive).
`NC1=NC(=O)C(CC(=O)Nc2ccccc2F)S1` (centres undefined) was tested, and the Kd was > 4 mM (inactive).
With `O=C(O)c1ccnn1-c1ccccc1` the Kd was > 4 mM (inactive).
For `O=C(O)Cn1nnn(-c2ccccc2)c1=S`, the Kd was > 4 mM (inactive).
For `CN(C)c1ccc(/C=C2/NC(=S)NC2=O)cc1`, the Kd was > 4 mM (inactive).
For `Cc1cc2ncn(S(=O)(=O)N3CCOCC3)c2cc1C`, the Kd was > 4 mM (inactive).
`Cc1ccc2nc(SCCC#N)nc(C)c2c1` was tested, and the Kd was > 4 mM (inactive).
With `CNC(=O)C(=O)Nc1ccc(C)c(C)c1` the Kd was > 4 mM (inactive).
`O=C(O)Cc1noc2ccccc12` was tested, and the Kd was > 4 mM (inactive).
With `O=C(O)c1ccc(CSc2ncn[nH]2)cc1` the Kd was > 4 mM (inactive).
`CC1CN(C(=O)c2ccncc2)CC(C)O1` (centres undefined) was tested, and the Kd was > 4 mM (inactive).
In the case of `Cc1cc(=O)[nH]c(N2CCN(Cc3ccccc3)CC2)n1`, the Kd is reported as > 4 mM (inactive).
For `CC(C)c1ccc2c(c1)CCC1C(C)(C(N)=O)CCCC21C` (centres undefined), the Kd was > 4 mM (inactive).
`CCC(=O)Nc1cccc(NC(C)=O)c1` was tested, and the Kd was > 4 mM (inactive).
With `COC(=O)c1c(C)cc(OC(=O)c2c(C)cc(O)c(C=O)c2O)c(C)c1O` the Kd was > 4 mM (inactive).
In the case of `Nc1nc(-c2ccc(Cl)cc2)nn1C(=O)c1cccnc1`, the Kd is reported as > 4 mM (inactive).
`COc1ccc([C@H]2Oc3c(I)c(OC)cc(OC)c3C[C@@H]2O)cc1OC` was tested, and the Kd was > 4 mM (inactive).
For `Nc1nc(N)nc(N2C(=O)c3ccccc3C2=O)n1`, the Kd was > 4 mM (inactive).
In the case of `CS(=O)(=O)N1CCN(c2ncccn2)CC1`, the Kd is reported as > 4 mM (inactive).
In the case of `CC1(C)Oc2ccc(N)cc2O1`, the Kd is reported as > 4 mM (inactive).
In the case of `Cc1nn(-c2ccccc2C(=O)O)c(=O)c2ccccc12`, the Kd is reported as > 4 mM (inactive).
For `Cc1cc2ncc(C(=O)O)c(C)n2n1`, the Kd was > 4 mM (inactive).
In the case of `O=c1c(-c2ccco2)[n+]([O-])c2ccccc2n1O`, the Kd is reported as > 4 mM (inactive).
In the case of `CC(=O)N1CCN(c2ccc(N)cc2)CC1`, the Kd is reported as > 4 mM (inactive).
With `O=C(O)CCSc1nc2ccccc2s1` the Kd was > 4 mM (inactive).
For `O=C1c2cccc3cc(S(=O)(=O)O)cc(c23)C(=O)N1O`, the Kd was > 4 mM (inactive).
For `Nc1ncnc(Cl)c1[N+](=O)[O-]`, the Kd was > 4 mM (inactive).
With `Cn1cc(Cl)c(C(=O)NC2CCCC2)n1` the Kd was > 4 mM (inactive).
